Structures can show the parent of a compound that is named as a salt.
The compounds below were run against USP7 (Homo sapiens, UniProt Q93009) (assay: biochemical). Conditions: read-out: % Inhibition at 50 μM.
Parameters: Ub-AMC hydrolysis by recombinant USP7 (20 nM), 30 min pre-incubation, fluorescence read-out

USP7, sequence (Q93009 whole entry): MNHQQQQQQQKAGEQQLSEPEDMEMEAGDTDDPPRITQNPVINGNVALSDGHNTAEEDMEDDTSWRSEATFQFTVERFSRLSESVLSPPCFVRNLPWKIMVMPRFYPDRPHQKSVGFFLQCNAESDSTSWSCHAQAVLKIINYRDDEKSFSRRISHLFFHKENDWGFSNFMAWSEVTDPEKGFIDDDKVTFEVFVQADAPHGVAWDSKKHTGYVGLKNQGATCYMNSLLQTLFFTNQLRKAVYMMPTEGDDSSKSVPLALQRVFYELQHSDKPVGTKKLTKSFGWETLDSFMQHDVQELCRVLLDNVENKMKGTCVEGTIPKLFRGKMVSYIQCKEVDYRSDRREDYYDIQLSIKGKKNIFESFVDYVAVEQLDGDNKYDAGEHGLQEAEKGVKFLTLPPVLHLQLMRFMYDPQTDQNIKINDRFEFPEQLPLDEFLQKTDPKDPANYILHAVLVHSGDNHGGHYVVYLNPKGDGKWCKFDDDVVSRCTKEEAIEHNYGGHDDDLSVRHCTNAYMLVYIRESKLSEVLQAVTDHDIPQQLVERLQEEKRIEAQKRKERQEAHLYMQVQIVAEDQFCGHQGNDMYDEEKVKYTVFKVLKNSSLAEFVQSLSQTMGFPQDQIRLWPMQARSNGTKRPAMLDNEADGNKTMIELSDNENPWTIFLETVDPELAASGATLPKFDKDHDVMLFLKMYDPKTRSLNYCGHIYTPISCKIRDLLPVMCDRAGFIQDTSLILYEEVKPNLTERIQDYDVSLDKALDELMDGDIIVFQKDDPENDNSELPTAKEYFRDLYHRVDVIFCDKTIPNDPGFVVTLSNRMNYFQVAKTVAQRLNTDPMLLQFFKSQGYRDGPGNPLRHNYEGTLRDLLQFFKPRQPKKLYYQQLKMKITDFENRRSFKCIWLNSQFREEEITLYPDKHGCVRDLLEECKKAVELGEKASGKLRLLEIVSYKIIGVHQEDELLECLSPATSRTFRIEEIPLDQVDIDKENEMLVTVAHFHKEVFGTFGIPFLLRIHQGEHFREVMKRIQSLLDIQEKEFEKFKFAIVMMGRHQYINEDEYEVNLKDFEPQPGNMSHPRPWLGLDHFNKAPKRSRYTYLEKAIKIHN

| Structure (SMILES) | inhibition at 50 µM |
| --- | --- |
| CCC(=O)O[C@@H](O[P@](=O)(CCCCc1ccccc1)CC(=O)N1C[C@H](C2CCCCC2)C[C@H]1C(=O)O)C(C)C [Fosinopril] | < 5% |
| CC(C)C(=O)c1c(C(C)C)nn2ccccc12 [Ibudilast] | < 5% |
| C#Cc1cccc(Nc2ncnc3cc(OCCOC)c(OCCOC)cc23)c1 [Erlotinib] | < 5% |
| COc1ccc(C(=O)c2c(C)n(CCN3CCOCC3)c3ccccc23)cc1 [Pravadoline] | < 5% |
| CCCCCCCCCCCCCCCC(=O)O[C@@H]1[C@@H](O)[C@@H](O)[C@@H]([C@H](NC(=O)[C@@H]2C[C@@H](CCC)CN2C)[C@H](C)Cl)O[C@@H]1SC [Clindamycin palmitate] | < 5% |
| CN(C)C(=N)NC(=N)N [Metformin] | 8.6% |
| CC12CC3CC(C)(C1)CC(N)(C3)C2 [Memantine HCl] | < 5% |
| CN(C(=O)CCCOc1ccc2[nH]c(=O)ccc2c1)C1CCCCC1 [Cilostamide] | < 5% |
| CCCNCC(O)COc1ccccc1C(=O)CCc1ccccc1 (centres unmarked) [Propafenone] | 78.2% |
| CN(C)CCC[C@@]1(c2ccc(F)cc2)OCc2cc(C#N)ccc21 [Escitalopram] | < 5% |
| CCCCCCCCCCCCCCCCOP(=O)([O-])OCC[N+](C)(C)C [Miltefosine] | 6.5% |
| CCC(C)n1ncn(-c2ccc(N3CCN(c4ccc(OC[C@H]5CO[C@](Cn6cncn6)(c6ccc(Cl)cc6Cl)O5)cc4)CC3)cc2)c1=O (mixture of isomers) [Itraconazole] | < 5% |
| CC1=C(/C=C/C(C)=C/C=C/C(C)=C/C=C/C=C(C)/C=C/C=C(C)/C=C/C2=C(C)C(=O)CCC2(C)C)C(C)(C)CCC1=O [Canthaxanthin] | < 5% |
| CC(C)NCC(O)c1ccc2ccccc2c1 (centres unmarked) [Pronethalol HCl] | 8.3% |
| NS(=O)(=O)Cc1noc2ccccc12 [Zonisamide] | < 5% |
| COCCc1ccc(OCC(O)CNC(C)C)cc1 (centres unmarked) [Metoprolol tartrate] | < 5% |
| Clc1ccc(CCC(Cn2ccnc2)Sc2c(Cl)cccc2Cl)cc1 (centres unmarked) [Butoconazole nitrate] | < 5% |
| Nc1ccn([C@@H]2O[C@H](CO)[C@@H](O)C2(F)F)c(=O)n1 [Gemcitabine HCl] | 21.5% |
| CC1=C(/C=C/C(C)=C/C=C/C(C)=C/C(=O)O)C(C)(C)CCC1 [Retinoic acid] | < 5% |
| Cc1nc2n(c(=O)c1CCN1CCC(c3noc4cc(F)ccc34)CC1)CCCC2 [Risperidone] | < 5% |
| CC1(C)CC[C@]2(C(=O)O)CC[C@]3(C)C(=CC[C@@H]4[C@@]5(C)C[C@H](O)[C@H](O)[C@@](C)(CO)[C@@H]5CC[C@]43C)[C@@H]2C1 [Bayogenin] | < 5% |
| Cc1c(C)c2c(c(C)c1O)CCC(C)(COc1ccc(CC3SC(=O)NC3=O)cc1)O2 (centres unmarked) [Troglitazone] | 5.3% |
| CN(C)/N=N/c1[nH]cnc1C(N)=O [Dacarbazine] | < 5% |
| CCC[S+]([O-])c1ccc2[nH]c(NC(=O)OC)nc2c1 (centres unmarked) [Ricobendazole] | < 5% |
| Nc1ccc(S(=O)(=O)Nc2ncccn2)cc1 [Sulfadiazine] | < 5% |

| Structure (SMILES) | inhibition at 50 µM |
| --- | --- |
| CC(C)[C@H]1CC[C@H](C(=O)N[C@H](Cc2ccccc2)C(=O)O)CC1 [nateglinide] | < 5% |
| CC(=O)[C@H]1CC[C@H]2[C@@H]3CC=C4C[C@@H](O)CC[C@]4(C)[C@H]3CC[C@]12C [Pregnenolone] | < 5% |
| O=C(CCCN1CCC2(CC1)C(=O)NCN2c1ccccc1)c1ccc(F)cc1 [Spiperone] | < 5% |
| COc1cc(-c2ccc(=O)[nH]n2)ccc1OC(F)F [Zardaverine] | < 5% |
| COC(=O)C1=C(C)NC(C)=C(C(=O)OCCN2CCN(C(c3ccccc3)c3ccccc3)CC2)C1c1cccc([N+](=O)[O-])c1 (centres unmarked) [Manidipine] | < 5% |
| O=C(O[C@@H]1C[C@@H]2C[C@H]3C[C@H](C1)N2CC3=O)c1c[nH]c2ccccc12 [Dolasetron] | < 5% |
| C[C@](N)(Cc1ccc(O)c(O)c1)C(=O)O [Methyldopa] | < 5% |
| CC[C@]1(O)C[C@@H]2CN(CCc3c([nH]c4ccccc34)[C@@](C(=O)OC)(c3cc4c(cc3OC)N(C)[C@H]3[C@@](O)(C(N)=O)[C@H](O)[C@]5(CC)C=CCN6CC[C@]43[C@@H]65)C2)C1 [Vindesine] | < 5% |
| CC(C)NCC(O)c1ccc(O)c(O)c1 (racemic) [Isoproterenol HCl (rac)] | < 5% |
| COc1ccc2c(c1)c(CC(=O)OCC(=O)O)c(C)n2C(=O)c1ccc(Cl)cc1 [Acemetacin] | 19.8% |
| COC(=O)C1=C(C)NC(C)=C(C(=O)OCCCN2CCC(c3ccccc3)(c3ccccc3)CC2)[C@H]1c1cccc([N+](=O)[O-])c1 [Niguldipine HCl] | < 5% |
| COc1ccc(C[C@H](N)C(=O)N[C@H]2[C@@H](O)[C@H](n3cnc4c(N(C)C)ncnc43)O[C@@H]2CO)cc1 [Puromycin 2HCl] | < 5% |
| CO[C@H]1C[C@@H]2CC[C@@H](C)[C@@](O)(O2)C(=O)C(=O)N2CCCC[C@H]2C(=O)O[C@H]([C@H](C)C[C@@H]2CC[C@@H](O)[C@H](OC)C2)CC(=O)[C@H](C)/C=C(\C)[C@@H](O)[C@@H](OC)C(=O)[C@H](C)C[C@H](C)/C=C/C=C/C=C/1C [Rapamycin] | < 5% |
| CCCOc1ccccc1-c1nc2[nH]nnc2c(=O)[nH]1 [Zaprinast] | < 5% |
| C=C(C)[C@@H]1CC[C@]2(C(=O)O)CC[C@]3(C)[C@H](CC[C@@H]4[C@@]5(C)CC[C@H](O)C(C)(C)[C@@H]5CC[C@]43C)[C@@H]12 [Betulinic acid] | 25.8% |
| CCCCC[C@H](O)/C=C/[C@@H]1[C@@H](C/C=C\CCCC(=O)O)[C@@H](O)C[C@H]1O [Dinoprost] | < 5% |
| CCOc1nc2cccc(C(=O)O)c2n1Cc1ccc(-c2ccccc2-c2nnn[nH]2)cc1 [Candesartan] | < 5% |
| CC(C)(C)[C@]1(O)CCN2C[C@H]3c4ccccc4CCc4cccc(c43)[C@@H]2C1 [Butaclamol (+)] | < 5% |
| N=C(N)NC(=N)N1CCOCC1 [Moroxydine HCl] | 17.2% |
| C#C[C@]1(O)CC[C@H]2[C@@H]3CCC4=CC(=O)CC[C@@H]4[C@H]3CC[C@@]21CC [Levonorgestrel] | < 5% |
| CC(C)n1c(/C=C/[C@H](O)C[C@H](O)CC(=O)O)c(-c2ccc(F)cc2)c2ccccc21 [Fluvastatin Na] | < 5% |
| CC(=O)O[C@H]1C[C@@H]2CC[C@@H]3[C@H](CC[C@@]4(C)[C@H]3C[C@H]([N+]3(C)CCCCC3)[C@@H]4OC(C)=O)[C@@]2(C)C[C@@H]1[N+]1(C)CCCCC1 [Pancuronium Br] | < 5% |
| Cc1cn([C@H]2C[C@H](N=[N+]=[N-])[C@@H](CO)O2)c(=O)[nH]c1=O [3'-azido-3'-deoxythymidine] | < 5% |
| CC1CCc2c(N3CCC(O)CC3)c(F)cc3c(=O)c(C(=O)O)cn1c23 (centres unmarked) [Nadifloxacin] | < 5% |
| Cn1c(=O)c2[nH]cnc2n(C)c1=O [Aminophylline] | < 5% |

| Structure (SMILES) | inhibition at 50 µM |
| --- | --- |
| C=C1C[C@@H]2[C@H](CC[C@]3(C)C(=O)CC[C@@H]23)[C@@]2(C)C=CC(=O)C=C12 [Exemestane] | < 5% |
| CCC(NC(C)C)C(O)c1ccc(O)c2[nH]c(=O)ccc12 (centres unmarked) [Procaterol hcl] | < 5% |
| CC(C)NCC(O)c1ccc(N)c(C#N)c1 (centres unmarked) [Cimaterol] | < 5% |
| CC(C)Nc1cccnc1N1CCN(C(=O)c2cc3cc(NS(C)(=O)=O)ccc3[nH]2)CC1 [Delavirdine mesylate] | < 5% |
| C[C@@H]1CCC[C@H](C)N1NC(=O)c1ccc(Cl)c(S(N)(=O)=O)c1 [Clopamide] | < 5% |
| CCN(CC)C(=S)SSC(=S)N(CC)CC [Disulfiram] | < 5% |
| CNC[C@H](O)c1ccc(O)c(O)c1 [Epinephrine-(+)-tartrate l (-)] | < 5% |
| CCOC(=O)C1=C[C@]2(CC)CCCN3CCc4c(n1c1ccccc41)[C@@H]32 [Vinpocetine] | 38.5% |
| OCCN1CCN(CCCN2c3ccccc3Sc3ccc(C(F)(F)F)cc32)CC1 [Fluphenazine 2HCl] | < 5% |
| CN1[C@@H]2CCC[C@H]1C[C@@H](NC(=O)c1nn(C)c3ccccc13)C2 [Granisetron] | < 5% |
| Nc1nc2ccc(OC(F)(F)F)cc2s1 [Riluzole HCl] | < 5% |
| Fc1ccc(C(c2ccc(F)cc2)N2CCN(C/C=C/c3ccccc3)CC2)cc1 [Flunarizine-2HCl] | < 5% |
| CN(C)C(=O)C(CCN1CCC(O)(c2ccc(Cl)cc2)CC1)(c1ccccc1)c1ccccc1 [Loperamide] | < 5% |
| c1cnc(N2CCN(Cc3ccc4c(c3)OCO4)CC2)nc1 [Piribedil HCl] | < 5% |
| CCN(CC)CCNC(=O)c1cc(Cl)c(N)cc1OC [Metoclopramide HCl] | < 5% |
| O=C(O)c1cc(/N=N/c2ccc(S(=O)(=O)Nc3ccccn3)cc2)ccc1O [Sulfasalazine] | < 5% |
| O=C(O)CCCc1ccccc1 [Sodium phenylbutyrate] | < 5% |
| CN(C)CCCN1c2ccccc2CCc2ccccc21 [Imipramine HCl] | 26.5% |
| C[C@H]1c2cccc(O)c2C(=O)C2=C(O)[C@]3(O)C(=O)C(C(N)=O)=C(O)[C@@H](N(C)C)[C@@H]3[C@@H](O)[C@@H]21 [Doxycycline HCl] | < 5% |
| CN1[C@@H](CC(=O)c2ccccc2)CCC[C@H]1C[C@H](O)c1ccccc1 [Lobeline] | < 5% |
| CC1(C)CC[C@]2(C(=O)O)CC[C@]3(C)C(=CC[C@@H]4[C@@]5(C)CC[C@H](O)[C@@](C)(CO)[C@@H]5CC[C@]43C)[C@@H]2C1 [Hederagenin] | 36.5% |
| COc1cc(NC(C)CCCN)c2ncccc2c1 (centres unmarked) [Primaquine phosphate] | < 5% |
| CCN1CCC[C@H]1CNC(=O)c1cc(S(N)(=O)=O)ccc1OC [Sulpiride s (-)] | < 5% |
| O=C(O)COC(=O)Cc1ccccc1Nc1c(Cl)cccc1Cl [Aceclofenac] | < 5% |

Source: PMC5363571 (Oncotarget, 2016)
